# Data taken from patent US20250115620A1, “BRIDGED TRICYCLIC CARBAMOYLPYRIDONE COMPOUNDS AND USES THEREOF” (Gilead Sciences, Inc., priority 2022, published 2025).
# Like-named read-outs stand apart in the source and are kept apart here.
# What was measured:
# [1] = tested on: pLAI reporter virus; experiment: microbe, parasite or virus in culture; type: cell-based, HIV; details: Human immunodeficiency virus 1, MT4, 72 h
# [2] = in vitro; details: human, uninfected MT-4 cells
# [3] = tested on: HIV-1 (IIIB); experiment: microbe, parasite or virus in culture; type: cell-based; details: Human immunodeficiency virus 1, IIIB, MT4, 120 h, read-out: MT4 EC50
# Procedure: Compounds were tested in a high-throughput 384-well assay format for their ability to inhibit the replication of HIV-1 (IIIB) in MT-4 cells. Compounds were serially diluted (1:3) in DMSO on 384-well polypropylene plates and further diluted 200-fold into complete RPMI media (10% FBS, 1% P/S) using the Biotek Micro Flow and Labcyte ECHO acoustic dispenser. Each plate contained up to 8 test compounds, with negative (No Drug Control) and 5 μM AZT positive controls. MT-4 cells were pre-infected with 10 μL of either RPMI (mock-infected) or a fresh 1:250 dilution of HIV-1 IIIB concentrated virus stock. Infected and uninfected MT-4 cells were further diluted in complete RPMI media and added to each plate using a Micro Flow dispenser. After 5 days incubation in a humidified and temperature controlled incubator (37° C.), Cell Titer Glo (Promega) was added to the assay plates and chemiluminescence read using an Envision plate-reader.
# [4] = HIV-1 (IIIB) in MT-4 cells, 5 days incubation, Cell Titer Glo
Compound,EC50 ([1]; read-out: RLUC 50% HS EC50) [nM],EC50 ([1]; read-out: RLUC CCM EC50) [nM],CC50 at 5 days [2] [µM],"EC50 [3, 4] [nM]",EC50 [3] [nM]
"C[C@H]1CC[C@]2(CC(=O)N(Cc3cccc4[nH]cnc34)O2)[C@H]2CN1C(=O)c1c(O)c(=O)c(C(=O)NCc3c(F)cc(F)cc3F)cn12 [Example 114, (3′S,5S,7′R)-2-((1H-benzo[d]imidazol-4-yl)methyl)-12′-hydroxy-3′-methyl-1′,3,11′-trioxo-N-(2,4,6-trifluorobenzyl)-1′,4′,5′,11′-tetrahydro-3′H,7′H-spiro[isoxazolidine-5,6′-[2,7]methanopyrido[1,2-a][1,4]diazonine]-10′-carboxamide]",5.9,1.9,≥ 50,6.1,–
"CC1=NO[C@@]2(CC[C@H](C)N3C[C@H]2n2cc(C(=O)NCc4ccc(F)cc4F)c(=O)c(O)c2C3=O)O1 [Example 91, (3′S,5R,7′R)—N-(2,4-difluorobenzyl)-12′-hydroxy-3,3′-dimethyl-1′,11′-dioxo-1′,4′,5′,11′-tetrahydro-3′H,7′H-spiro[[1,4,2]dioxazole-5,6′-[2,7]methanopyrido[1,2-a][1,4]diazonine]-10′-carboxamide]",158,0.2,20,1.4,–
"C[C@H]1CC[C@]2(CCCN2)[C@H]2CN1C(=O)c1c(O)c(=O)c(C(=O)NCc3c(F)cc(F)cc3F)cn12 [Example 122, (2R,3′S,7′R)-12′-hydroxy-3′-methyl-1′,11′-dioxo-N-(2,4,6-trifluorobenzyl)-1′,4′,5′,11′-tetrahydro-3′H,7′H-spiro[pyrrolidine-2,6′-[2,7]methanopyrido[1,2-a][1,4]diazonine]-10′-carboxamide]",7.6,0.9,38,–,6.4
"CCN1O[C@@]2(CC[C@H](C)N3C[C@H]2n2cc(C(=O)NCc4c(F)cc(F)cc4F)c(=O)c(O)c2C3=O)CC1=O [Example 157, (3′S,5S,7′R)-2-ethyl-12′-hydroxy-3′-methyl-1′,3,11′-trioxo-N-(2,4,6-trifluorobenzyl)-1′,4′,5′,11′-tetrahydro-3′H,7′H-spiro[isoxazolidine-5,6′-[2,7]methanopyrido[1,2-a][1,4]diazonine]-10′-carboxamide]",4.1,0.3,≥ 50,1.1,–
"C[C@H]1CC[C@]2(CC(=O)N(Cc3cccc4ccccc34)O2)[C@H]2CN1C(=O)c1c(O)c(=O)c(C(=O)NCc3c(F)cc(F)cc3F)cn12 [Example 106, (3′S,5S,7′R)-12′-hydroxy-3′-methyl-2-(naphthalen-1-ylmethyl)-1′,3,11′-trioxo-N-(2,4,6-trifluorobenzyl)-1′,4′,5′,11′-tetrahydro-3′H,7′H-spiro[isoxazolidine-5,6′-[2,7]methanopyrido[1,2-a][1,4]diazonine]-10′-carboxamide]",64.2,0.2,≥ 50,0.9,–
"COC1=NO[C@@]2(CC[C@H](C)N3C[C@H]2n2cc(C(=O)NCc4c(F)cc(F)cc4F)c(=O)c(O)c2C3=O)[C@H]1F [Example 87, (3′S,4R,5R,7′R)-4-fluoro-12′-hydroxy-3-methoxy-3′-methyl-1′,11′-dioxo-N-(2,4,6-trifluorobenzyl)-1′,4′,5′,11′-tetrahydro-3′H,4H,7′H-spiro[isoxazole-5,6′-[2,7]methanopyrido[1,2-a][1,4]diazonine]-10′-carboxamide]",31.8,0.2,10.5,1.2,–
"CO[C@@H]1CS[C@]2(CC[C@H](C)N3C[C@H]2n2cc(C(=O)NCc4c(F)cc(F)cc4F)c(=O)c(O)c2C3=O)O1 (single isomer, unassigned) [170 (peak 2)]",2.6,0.2,42.6,1.7,–
"C[C@H]1CC[C@]2(CC(=O)N(Cc3ccc4ccccc4c3)O2)[C@H]2CN1C(=O)c1c(O)c(=O)c(C(=O)NCc3c(F)cc(F)cc3F)cn12 [Example 107, (3′S,5S,7′R)-12′-hydroxy-3′-methyl-2-(naphthalen-2-ylmethyl)-1′,3,11′-trioxo-N-(2,4,6-trifluorobenzyl)-1′,4′,5′,11′-tetrahydro-3′H,7′H-spiro[isoxazolidine-5,6′-[2,7]methanopyrido[1,2-a][1,4]diazonine]-10′-carboxamide]",10.2,0.3,≥ 50,0.8,–
"C[C@H]1CC[C@@]2(CC(CF)=NO2)[C@H]2CN1C(=O)c1c(O)c(=O)c(C(=O)NCc3ccc(F)cc3F)cn12 [Example 18, (3′S,5R,7′R)—N-(2,4-difluorobenzyl)-3-(fluoromethyl)-12′-hydroxy-3′-methyl-1′,11′-dioxo-1′,4′,5′,11′-tetrahydro-3′H,4H,7′H-spiro[isoxazole-5,6′-[2,7]methanopyrido[1,2-a][1,4]diazonine]-10′-carboxamide]",2.4,1.6,≥ 50,4.5,–
"C[C@H]1CC[C@@]2(COCCO2)[C@H]2CN1C(=O)c1c(O)c(=O)c(C(=O)NCc3c(F)cc(F)cc3F)cn12 [Example 140, (2S,3′S,7′R)-12′-hydroxy-3′-methyl-1′,11′-dioxo-N-(2,4,6-trifluorobenzyl)-1′,4′,5′,11′-tetrahydro-3′H,7′H-spiro[[1,4]dioxane-2,6′-[2,7]methanopyrido[1,2-a][1,4]diazonine]-10′-carboxamide]",1.7,0.1,22.8,1.8,–
"C[C@H]1CC[C@]2(CC(=O)N(Cc3ccc(F)cc3)O2)[C@H]2CN1C(=O)c1c(O)c(=O)c(C(=O)NCc3c(F)cc(F)cc3F)cn12 (single isomer, unassigned) [Example 115]",5.1,0.3,≥ 50,1.2,–
"CCC1=NO[C@@]2(CC[C@H](C)N3C[C@H]2n2cc(C(=O)NCc4c(F)cc(F)cc4F)c(=O)c(O)c2C3=O)C1 [Example 67, (3′S,5S,7′R)-3-ethyl-12′-hydroxy-3′-methyl-1′,11′-dioxo-N-(2,4,6-trifluorobenzyl)-1′,4′,5′,11′-tetrahydro-3′H,4H,7′H-spiro[isoxazole-5,6′-[2,7]methanopyrido[1,2-a][1,4]diazonine]-10′-carboxamide]",190,0.3,20,1.3,–
"C[C@H]1CC[C@]2(CC(=O)N(CCc3ccccc3)O2)[C@H]2CN1C(=O)c1c(O)c(=O)c(C(=O)NCc3c(F)cc(F)cc3F)cn12 [Example 105, (3′S,5S,7′R)-12′-hydroxy-3′-methyl-1′,3,11′-trioxo-2-phenethyl-N-(2,4,6-trifluorobenzyl)-1′,4′,5′,11′-tetrahydro-3′H,7′H-spiro[isoxazolidine-5,6′-[2,7]methanopyrido[1,2-a][1,4]diazonine]-10′-carboxamide]",15.5,0.3,≥ 50,1.2,–
"C[C@H]1CC[C@]2(CC(CO)=NO2)[C@H]2CN1C(=O)c1c(O)c(=O)c(C(=O)NCc3ccc(F)cc3F)cn12 [Example 16, (3′S,5S,7′R)—N-(2,4-difluorobenzyl)-12′-hydroxy-3-(hydroxymethyl)-3′-methyl-1′,11′-dioxo-1′,4′,5′,11′-tetrahydro-3′H,4H,7′H-spiro[isoxazole-5,6′-[2,7]methanopyrido[1,2-a][1,4]diazonine]-10′-carboxamide]",52.9,2.8,49.4,2.6,–
